The values below come from PMC4940736 (Scientific Reports, 2016).

“And” between values parts separate entries of the source, which are not always exact repeats. Equal entries are not always repeated. Some results are limits rather than exact numbers.

In general, IC50 refers to the concentration at which inhibition is half-maximal. Higher therefore signals weaker potency. By stoichiometry N is commonly meant a count of units in the complex or per binding partner.

For data set [1], the target named is T1, EBOV NP (amino acids 36–351) (Zaire ebolavirus, UniProt P18272). The format is binding, Ebola virus.
Data set [2] has as its target T2, MARV NP (amino acids 19–370) (Lake Victoria marburgvirus, UniProt P27588). The format is binding, Marburg virus.
The target of data set [3] is T3, EBOV NP (Zaire ebolavirus, UniProt P18272). The class given is binding, Ebola virus.
Data set [4] addresses T4, MARV NP (Lake Victoria marburgvirus, UniProt P27588). The format is binding, Marburg virus.
The target in data set [5] is T3, EBOV NP. The format is binding, Ebola virus. This is another data set of the same source.
The target in data set [6] is T4, MARV NP. The format is binding, Marburg virus. This is another data set of the same source.
Data set [7] has as its target EBOV NP (residues 36–351) (Zaire ebolavirus, UniProt P18272). The class given is biochemical, Ebola virus.
For data set [8], the target named is MARV NP (residues 19–370) (Lake Victoria marburgvirus, UniProt P27588). The class given is biochemical, Marburg virus.
Data set [9] has as its target T1, EBOV NP (amino acids 36–351). The class given is binding, Ebola virus. The source holds these as a separate data set.
Data set [10] addresses T2, MARV NP (amino acids 19–370). The class given is binding, Marburg virus. The source holds these as a separate data set.
Data set [11] addresses oligomeric EBOV NP 36–450 / ssRNA (Zaire ebolavirus, UniProt P18272). The experiment in a line: biochemical.
Data set [12] concerns the target T1, EBOV NP (amino acids 36–351). The class given is binding, Ebola virus. The source holds these as a separate data set.
In data set [13] the target is T2, MARV NP (amino acids 19–370). The class given is binding, Marburg virus. The source holds these as a separate data set.
The data set “SEC” concerns the molecule itself. Briefly: SEC. For orientation: SEC sorts molecules by how far they enter the pores of the column.
The data set “SEC-MALS” deals with the molecule itself. Briefly: SEC-MALS.

Regarding `O=C1C[C@@H](c2ccc(O)cc2)Oc2cc(O[C@@H]3O[C@H](CO)[C@@H](O)[C@H](O)[C@H]3O)ccc21` [GC2, Neoliquiritin], the “S/N ratio (peak intensity protein incubation sample vs control)” value (from here on “S/N ratio”) in data set [1] stood at 1.31±0.27; in data set [2], 1.87±0.38. Further, the results for the “Corr response (SPR)” value at EBOV NP [3] and on MARV NP [4] were 2.0 RU and 1.1 RU, respectively. Besides, the “△Tm” value at EBOV NP [5] was determined as 0.0 ± 0.0 °C; at MARV NP [6], 0.2 ± 0.3 °C. For the same molecule, the figures for the “Monomer (%)” value in data set [7] and in data set [8] were 100% and 66.3%, respectively. The “Oligomer(%) >1000 kDa” value in [8] was found to be 4.0%. The “Tetramer (%)” value in data set [8] was 29.7%.
`O=c1cc(-c2ccc(O)cc2)oc2c([C@@H]3OC[C@H](O)[C@H](O)[C@H]3O)c(O)c([C@@H]3O[C@H](CO)[C@@H](O)[C@H](O)[C@H]3O)c(O)c12` [GC3, Schaftoside]: the “S/N ratio” value was 1.47±0.30 in [1] and 1.67±0.31 in [2]. The “Corr response (SPR)” value on EBOV NP [3] was 2.9 RU; on MARV NP [4], 2.8 RU. Besides, the results for the “△Tm” value at EBOV NP [5] and on MARV NP [6] were −0.6 ± 0.1 °C and −0.4 ± 0.3 °C, respectively.
On to `O=C(/C=C/c1ccc(O)cc1)c1ccc(O[C@@H]2O[C@H](CO)[C@@H](O)[C@H](O)[C@H]2O)cc1O` [GC4, Neoisoliquiritin], for which the results for the “S/N ratio” value in data set [1] and in data set [2] were 1.46±0.29 and 1.59±0.41, respectively. Also, the “△Tm” value on EBOV NP [5] was found to be 0.1 ± 0.2 °C; on MARV NP [6] it was 0.2 ± 0.3 °C.
For `COc1ccc(-c2coc3cc(O[C@@H]4O[C@H](CO)[C@@H](O)[C@H](O)[C@H]4O)ccc3c2=O)cc1` [GC5, Ononin], in that order: 1.34±0.31, 1.18±0.43, −0.2 ± 0.3 °C and 0.0 ± 0.5 °C.
Consider `CC1(C)[C@@H](O[C@H]2O[C@H](C(=O)O)[C@@H](O)[C@H](O)[C@H]2O[C@@H]2O[C@H](C(=O)O)[C@@H](O)[C@H](O)[C@H]2O)CC[C@]2(C)[C@H]3C(=O)C=C4[C@@H]5C[C@@](C)(C(=O)O)CC[C@]5(C)CC[C@@]4(C)[C@]3(C)CC[C@@H]12` [GC6, Glycyrrhizin], for which the results for the “S/N ratio” value in [1] and in data set [2] were 1.84±0.12 and 1.46±0.73, respectively. Further, the “△Tm” value at EBOV NP [5] was 0.1 ± 0.2 °C; at MARV NP [6], −0.2 ± 0.3 °C.
Regarding `CC1(C(=O)O)CCC2(C)CCC3(C)C(=CC(=O)C4C5(C)CCC(O)C(C)(C)C5CCC43C)C2C1` (stereo not drawn) [GC7, 18β-Glycyrrhetinic acid], the “S/N ratio” value in [1] is recorded as 2.62±0.46; in data set [2], 2.79±0.34. Also, the “BF% (fraction of compound associated with the NP protein)” value in [9] was 11.0% ± 1.1%; in data set [10], 16.9% ± 4.1%. In addition, the S/N is 2.7 ± 0.3 in [9] and 2.3 ± 0.4 in [10]. Further, the “Corr response (SPR)” value on EBOV NP [3] was 128 RU; at MARV NP [4], 35.8 RU. Also, the “decrease of the protein melting temperature” value on EBOV NP [5] worked out at 9 °C. In addition, the “△Tm” value on EBOV NP [5] was −9.2 ± 0.4 °C; at MARV NP [6], −1.1 ± 0.1 °C. For the same molecule, in [7], the “Oligomer(%) <1000 kDa” value came to 68.7%. In addition, the “Monomer (%)” value in data set [8] is 71.0% and 84.5%. For the same molecule, the “Oligomer(%) >1000 kDa” value in data set [8] is 6.2% and 6.9%. In addition, the half-maximal inhibitory concentration (IC50) in data set [11] was around 160 µM.
`O=C1C[C@@H](c2ccc(O)cc2)Oc2cc(O)ccc21` [GC8, Liquiritigenin]: the entries for the “S/N ratio” value in [1] and in [2] were 0.96±0.22 and 1.28±0.18, respectively.
`COc1ccc(-c2coc3cc(O)ccc3c2=O)cc1O` [GC9, Calycosin]: the “S/N ratio” value in data set [1] was found to be 1.21±0.25; in data set [2] it was 1.60±0.36.
`CC1(C)[C@@H](O)CC[C@]2(C)[C@H]3C(=O)C=C4[C@H]5C[C@@](C)(C(=O)O)CC[C@]5(C)CC[C@@]4(C)[C@]3(C)CC[C@@H]12` [GC10, 18α-Glycyrrhetinic acid]: the figures for the “S/N ratio” value in [1] and in [2] were 2.62±0.46 and 2.79±0.34, respectively. In addition, the “BF% (fraction of compound associated with the NP protein)” value in data set [9] is 0.1% ± 0.0%; in data set [10], 0.9% ± 0.5%. Moreover, the results for the S/N in [9] and in data set [10] were 1.2 ± 0.1 and 1.8 ± 0.1, respectively. The figures for the “Corr response (SPR)” value on EBOV NP [3] and at MARV NP [4] were 8.8 RU and 5.2 RU, respectively. Besides, the figures for the “△Tm” value on EBOV NP [5] and on MARV NP [6] were −0.8 ± 0.4 °C and −0.2 ± 0.3 °C, respectively. Further, the figures for the “Monomer (%)” value in data set [7] and in data set [8] were 64.0% and 63.3%, respectively. Also, the “Oligomer(%) >1000 kDa” value was found to be 36.0% in data set [7] and 0.5% in data set [8]. In addition, the “Tetramer (%)” value in data set [8] is given as 36.2%.
As for `O=C(/C=C/c1ccc(O)cc1)c1ccc(O)cc1O` [GC11, Isoliquiritigenin], the “S/N ratio” value in [1] was found to be 1.11±0.16; in data set [2], 1.08±0.04.
For `O=C1C[C@@H](c2ccc(O[C@@H]3O[C@H](CO)[C@@H](O)[C@H](O)[C@H]3O)cc2)Oc2cc(O)ccc21` [GC12, Liquiritin], in that order: 1.31±0.27 and 1.87±0.38.
As for `C=CC(C)(C)c1cc(/C=C/C(=O)c2ccc(O)cc2)c(OC)cc1O` [GC13, Licochalcone A], the “S/N ratio” value was found to be 5.61±1.11 in data set [1] and 6.54±0.52 in data set [2]. For the same molecule, the “BF% (fraction of compound associated with the NP protein)” value in data set [9] is recorded as 0.3% ± 0.0%; in data set [10], 0.1% ± 0.1%. In addition, the results for the S/N in data set [9] and in data set [10] were 6.0 ± 1.3 and 11.0 ± 1.9, respectively. Further, the “Corr response (SPR)” value at EBOV NP [3] is 43.8 RU; on MARV NP [4], 29.2 RU. For the same molecule, the entries for the “△Tm” value at EBOV NP [5] and on MARV NP [6] were −3.2 ± 0.3 °C and 0.7 ± 0.6 °C, respectively. Moreover, the “Monomer (%)” value in data set [7] worked out at 100%; in data set [8] it was 29.0%. For the same molecule, the “Oligomer(%) >1000 kDa” value in data set [8] turned out to be 2.6%. In addition, in data set [8], the “Tetramer (%)” value came out at 68.3%. In addition, in data set [8], the “increase of tetramer formation” value is listed as above 2 fold.
Turning to `O=C(/C=C/c1ccc(O[C@@H]2O[C@H](CO)[C@@H](O)[C@H](O)[C@H]2O)cc1)c1ccc(O)cc1O` [GC14, Isoliquiritin], the results for the “S/N ratio” value in [1] and in [2] were 0.49±0.02 and 1.61±0.19, respectively.
On to Liquiritin apioside [GC1], for which the entries for the “S/N ratio” value in [1] and in data set [2] were 1.37±0.28 and 1.85±0.35, respectively. Also, the “Corr response (SPR)” value is reported as 3.1 RU on EBOV NP [3] and 2.0 RU at MARV NP [4]. Moreover, the “△Tm” value is −0.5 ± 0.2 °C on EBOV NP [5] and −0.2 ± 0.3 °C at MARV NP [6]. Besides, the figures for the “S/N AVE” value in data set [12] and in [13] were 1.07 and 1.53, respectively. Besides, the VIP in [12] came to 2.03; in data set [13], 5.68.

B1: Ebola virus nucleoprotein, residues 36-450 (EBOV NP 36-450) (domain or fragment)
chain: VRQRVIPVYQVNNLEEICQLIIQAFEAGVDFQESADSFLLMLCLHHAYQGDYKLFLESGAVKYLEGHGFRFEVKKRDGVKRLEELLPAVSSGKNIKRTLAAMPEEETTEANAGQFLSFASLFLPKLVVGEKACLEKVQRQIQVHAEQGLIQYPTAWQSVGHMMVIFRLMRTNFLIKFLLIHQGMHMVAGHDANDAVISNSVAQARFSGLLIVKTVLDHILQKTERGVRLHPLARTAKVKNEVNSFKAALSSLAKHGEYAPFARLLNLSGVNNLEHGLFPQLSAIALGVATAHGSTLAGVNVGEQYQQLREAATEAEKQLQQYAESRELDHLGLDDQEKKILMNFHQKKNEISFQQTNAMVTLRKERLAKLTEAITAASLPKTSGHYDDDDDIPFPGPINDDDNPGHQDDDPTDSQ
With B1, the binding result in the data set “SEC” is “binds”.

B2: Marburg virus nucleoprotein core domain (MARV NP, amino acids 19-370) (domain or fragment)
chain: RNKKVILFDTNHQVSICNQIIDAINSGIDLGDLLEGGLLTLCVEHYYNSDKDKFNTSPVAKYLRDAGYEFDVIKNADATRFLDVSPNEPHYSPLILALKTLESTESQRGRIGLFLSFCSLFLPKLVVGDRASIEKALRQVTVHQEQGIVTYPNHWLTTGHMKVIFGILRSSFILKFVLIHQGVNLVTGHDAYDSIISNSVGQTRFSGLLIVKTVLEFILQKTDSGVTLHPLVRTSKVKNEVASFKQALSNLARHGEYAPFARVLNLSGINNLEHGLYPQLSAIALGVATAHGSTLAGVNVGEQYQQLREAAHDAEVKLQRRHEHQEIQAIAEDDEERKILEQFHLQKTEITH
On to B2, for which, in “SEC-MALS”, the “stoichiometry N” value was found to be 4.
